Data: US10676429B2, “Sulfamoyl-arylamides and the use thereof as medicaments for the treatment of hepatitis B” (priority 2012, dated 2020)

Experiments:
[1] = Cytotoxicity in HepG2 cells, 4 days, Resazurin assay; settings: human
[2] = test system: HBV; experiment: Anti-HBV activity in HepG2.117 cell line (Tet-off, intracellular HBV DNA, realtime PCR); format: cell-based
[3] = test system: HBV; experiment: Anti-HBV activity in stable transfected HepG2.2.15 cell line (HBV DNA from secreted virions, realtime PCR); format: cell-based
[4] = Hepatitis B virus, HepG2.117, 72 h, HepG2.117 cells, 3 days of treatment, intracellular HBV DNA, read-out: HepG2 117 EC50
[5] = Hepatitis B virus, HepG2.2.15, 144 h, HepG2.2.15 cells, 6 days of treatment, secreted virion HBV DNA, read-out: HepG2 2.15 EC50

| SMILES | CC50 at 4 days ([1]; HepG2 cells) | EC50 [2, 4] | EC50 [3, 5] | CC50 at 4 days [1] | EC50 ([2]; Hepatitis B virus, HepG2.117, 72 h, read-out: HepG2 117 EC50 (μM)) | EC50 ([3]; Hepatitis B virus, HepG2.2.15, 144 h, read-out: HepG2 2.15 EC50 (μM)) | EC50 ([2]; HepG2.117 cells, 3 days of treatment, intracellular HBV DNA, read-out: HepG2 117 EC50) | EC50 ([3]; HepG2.2.15 cells, 6 days of treatment, secreted virion HBV DNA, read-out: HepG2 2.15 EC50) |
| --- | --- | --- | --- | --- | --- | --- | --- | --- |
| Cc1cc(NC(=O)c2cc(S(=O)(=O)NC(C)C)oc2C)ccc1F [Compound 230] | > 25 µM | 1.52 µM | 0.73 µM | – | – | – | – | – |
| N#Cc1cc(NC(=O)c2cccc(S(=O)(=O)N[C@H]3CCOC3)c2)ccc1F [Compound 105] | > 25 µM | 0.98 µM | 0.81 µM | – | – | – | – | – |
| O=C(Nc1ccc(F)cc1)c1cccc(S(=O)(=O)N2CCCCC2=O)c1 [Compound 69] | > 25 µM | 10.4 µM | 3.9 µM | – | – | – | – | – |
| O=C(Nc1ccc(F)cc1)c1cc(S(=O)(=O)N2CCCCC2)cs1 [Compound 61] | – | – | – | 35.7 µM | 15.4 µM | 7.07 µM | – | – |
| Cc1cc(NC(=O)c2cc(S(=O)(=O)N[C@H]3CCOC3)ccc2Br)ccc1F [Compound 237] | > 25 µM | 0.13 µM | 0.43 µM | – | – | – | – | – |
| CCC1(NS(=O)(=O)c2cccc(C(=O)Nc3ccc(F)cc3)c2)CC1 [Compound 87] | > 25 µM | 0.89 µM | 0.41 µM | – | – | – | – | – |
| O=C(Nc1ccc(F)cc1)c1ccc(S(=O)(=O)N2CCCCC2)o1 [Compound 57] | 52.1 µM | 12.7 µM | 15.5 µM | – | – | – | – | – |
| Cc1cc(NC(=O)c2cccc(S(=O)(=O)NC3CN(C(=O)OC(C)(C)C)C3)c2)ccc1F [Compound 182] | > 25 µM | 0.88 µM | 0.31 µM | – | – | – | – | – |
| O=C(Nc1ccc(F)cc1)c1cc(S(=O)(=O)NC2CCCC2)c(Cl)cc1Cl [Compound 78] | > 25 µM | 0.65 µM | 0.9 µM | – | – | – | – | – |
| Cc1cc(NC(=O)c2cc(F)cc(S(=O)(=O)N[C@H]3CCOC3)c2)ccc1F [Compound 241] | > 25 µM | 1.79 µM | 0.38 µM | – | – | – | – | – |
| Cc1cc(C#N)cc(NC(=O)c2cccc(S(=O)(=O)NC3CCCC3)c2)c1 [Compound 82] | > 25 µM | 3.13 µM | 1.2 µM | – | – | – | – | – |
| Cc1cc(NC(=O)c2cccc(S(=O)(=O)N[C@H]3CCC[C@@H]3O)c2)ccc1F [Compound 138] | > 25 µM | 2.27 µM | 1.28 µM | – | – | – | – | – |
| Cc1cc(NC(=O)c2cccc(S(=O)(=O)N[C@@H](C)c3ccccc3)c2)ccc1F [Compound 167] | > 25 µM | 9.84 µM | 0.62 µM | – | – | – | – | – |
| N#Cc1cccc(NC(=O)c2cccc(S(=O)(=O)NC3CCCC3)c2)c1 [Compound 75] | > 25 µM | 0.82 µM | 0.39 µM | – | – | – | – | – |
| Cc1cc(F)cc(NC(=O)c2cccc(S(=O)(=O)NC3CCCC3)c2)c1 [Compound 12] | 13.3 µM | 1.51 µM | 0.11 µM | – | – | – | – | – |
| O=C(Nc1ccc(F)c(C(F)F)c1)c1cccc(S(=O)(=O)N[C@H]2CCOC2)c1F [Compound 220] | > 25 µM | 0.09 µM | 0.11 µM | – | – | – | – | – |
| CCC1(NS(=O)(=O)c2cccc(C(=O)Nc3ccc(F)cc3)c2)COC1 [Compound 89] | > 25 µM | 0.72 µM | 0.54 µM | – | – | – | – | – |
| CCc1cc(NC(=O)c2cccc(S(=O)(=O)NC(C)C)c2)ccc1F [Compound 92] | > 25 µM | 2.59 µM | 0.31 µM | – | – | – | – | – |
| Cc1cc(NC(=O)c2cccc(S(=O)(=O)N[C@@H](C)[C@H](O)c3ccccc3)c2)ccc1F [Compound 143] | > 25 µM | 2.66 µM | 0.91 µM | – | – | – | – | – |
| Cc1cc(NC(=O)c2cccc(S(=O)(=O)NC(C)CN3CCOCC3)c2)ccc1F (stereo not drawn) [Compound 117] | > 25 µM | 0.5 µM | 0.88 µM | – | – | – | – | – |
| Cc1cc(NC(=O)c2cccc(S(=O)(=O)N3CC4(CCOC4)C3)c2)ccc1F [Compound 146] | > 25 µM | 0.42 µM | 0.45 µM | – | – | – | – | – |
| Cc1cc(NC(=O)c2cccc(S(=O)(=O)N[C@@H](C)C(C)C)c2)ccc1F [Compound 151] | > 25 µM | 2.74 µM | 0.66 µM | – | – | – | – | – |
| O=C(Nc1ccccc1)c1cccc(S(=O)(=O)NC2CC2)c1 [Compound 55] | > 100 µM | 3.26 µM | 3.06 µM | – | – | – | – | – |
| Cc1cc(NC(=O)c2cccc(S(=O)(=O)N[C@H](C)[C@H](O)c3ccccc3)c2)ccc1F [Compound 142] | > 25 µM | 0.56 µM | 0.14 µM | – | – | – | – | – |
| O=C(Nc1ccc(F)cc1)c1cc(S(=O)(=O)N2CCCCC2)ccc1Cl [Compound 54] | > 50 µM | 1.55 µM | 1.63 µM | – | – | – | – | – |
| CCC(C)(C)NS(=O)(=O)c1cccc(C(=O)Nc2ccc(F)c(C)c2)c1 [Compound 86] | > 25 µM | 0.11 µM | 0.14 µM | – | – | – | – | – |

| SMILES | CC50 at 4 days ([1]; HepG2 cells) | EC50 [2, 4] | EC50 [3, 5] | CC50 at 4 days [1] | EC50 ([2]; Hepatitis B virus, HepG2.117, 72 h, read-out: HepG2 117 EC50 (μM)) | EC50 ([3]; Hepatitis B virus, HepG2.2.15, 144 h, read-out: HepG2 2.15 EC50 (μM)) | EC50 ([2]; HepG2.117 cells, 3 days of treatment, intracellular HBV DNA, read-out: HepG2 117 EC50) | EC50 ([3]; HepG2.2.15 cells, 6 days of treatment, secreted virion HBV DNA, read-out: HepG2 2.15 EC50) |
| --- | --- | --- | --- | --- | --- | --- | --- | --- |
| Cc1cc(NC(=O)c2cccc(S(=O)(=O)N[C@@H]3CCCC[C@@H]3O)c2)ccc1F (racemic) [Compound 132] | > 25 µM | 0.73 µM | 0.59 µM | – | – | – | – | – |
| Cc1cc(NC(=O)c2cccc(S(=O)(=O)NC(C)C)c2)cc(F)c1F [Compound 99] | > 25 µM | 0.46 µM | 0.09 µM | – | – | – | – | – |
| O=C(Nc1cc(F)cc(F)c1)c1cccc(S(=O)(=O)NC2CCCC2)c1 [Compound 15] | 10.1 µM | 0.78 µM | 0.28 µM | – | – | – | – | – |
| CC1(NS(=O)(=O)c2cccc(C(=O)Nc3ccc(F)c(CF)c3)c2)COC1 [Compound 127] | > 25 µM | 0.58 µM | 0.23 µM | – | – | – | – | – |
| Cc1ccc(S(=O)(=O)NC2(C)COC2)c(F)c1C(=O)Nc1ccc(F)c(C#N)c1 [Compound 191] | > 25 µM | 0.36 µM | 0.33 µM | – | – | – | – | – |
| CN(C(=O)C1CCCCC1)S(=O)(=O)c1cccc(C(=O)Nc2ccc(F)cc2)c1 [Compound 48] | 97.2 µM | 1.88 µM | 2.92 µM | – | – | – | – | – |
| N#Cc1ccc(NC(=O)c2cccc(S(=O)(=O)NC3CCCC3)c2)cc1 [Compound 80] | > 25 µM | 17.9 µM | 8.4 µM | – | – | – | – | – |
| Cc1cc(NC(=O)c2cccc(S(=O)(=O)NC3CC4CCC3O4)c2)ccc1F (stereo not drawn) [Compound 128] | > 25 µM | 0.54 µM | 0.23 µM | – | – | – | – | – |
| Cc1cc(NC(=O)c2cccc(S(=O)(=O)NC3(C)COC3)c2F)ccc1F [Compound 222] | > 25 µM | 0.1 µM | 0.05 µM | – | – | – | – | – |
| Cc1cc(NC(=O)c2cccc(S(=O)(=O)NC(C)C)c2)ccc1F [Compound 73] | > 25 µM | 0.15 µM | 0.073 µM | – | – | – | – | – |
| Cc1cc(NC(=O)c2cccc(S(=O)(=O)N[C@H]3c4ccccc4C[C@H]3O)c2)ccc1F [Compound 177] | > 25 µM | 0.72 µM | 0.77 µM | – | – | – | – | – |
| CC1(NS(=O)(=O)c2ccc(Cl)c(C(=O)Nc3ccc(F)c(C(F)(F)F)c3)c2)COC1 [Compound 233] | > 25 µM | > 1 µM | > 1 µM | – | – | – | – | – |
| Cc1ccc(S(=O)(=O)NC2(C)COC2)cc1C(=O)Nc1ccc(F)c(C(F)(F)F)c1 [Compound 238] | > 25 µM | 0.5 µM | 0.61 µM | – | – | – | – | – |
| Cc1cc(NC(=O)c2cccc(S(=O)(=O)NC(C)c3ccncc3)c2)ccc1F (stereo not drawn) [Compound 161] | > 25 µM | 0.35 µM | 0.2 µM | – | – | – | – | – |
| O=C(Nc1ccccc1)c1ccc(S(=O)(=O)N2CCCCC2)o1 [Compound 58] | 62.5 µM | 19.9 µM | 14.6 µM | – | – | – | – | – |
| Cc1cc(NC(=O)c2c(Cl)ccc(S(=O)(=O)N[C@H]3CCOC3)c2Cl)ccc1F [Compound 125] | > 25 µM | 1.15 µM | 1.44 µM | – | – | – | – | – |
| O=C(Nc1ccc(F)c(F)c1)c1cccc(S(=O)(=O)N[C@H]2CCOC2)c1 [Compound 90] | > 25 µM | 0.51 µM | 0.38 µM | – | – | – | – | – |
| CC1(NS(=O)(=O)c2ccc(Cl)c(C(=O)Nc3ccc(F)c(C(F)F)c3)c2)COC1 [Compound 235] | > 25 µM | 0.33 µM | 0.83 µM | – | – | – | – | – |
| O=C(Nc1ccc(F)cc1)c1cccc(S(=O)(=O)NC(=O)C2CCCCC2)c1 [Compound 56] | > 100 µM | 5.45 µM | 1.64 µM | – | – | – | – | – |
| Cc1cc(NC(=O)c2cccc(S(=O)(=O)NC3CCCN(C(=O)OC(C)(C)C)C3)c2)ccc1F (stereo not drawn) [Compound 155] | > 25 µM | 0.81 µM | 0.36 µM | – | – | – | – | – |
| COC(=O)N1CC(C)(NS(=O)(=O)c2cccc(C(=O)Nc3ccc(F)c(C)c3)c2)C1 [Compound 157] | > 25 µM | 0.23 µM | 0.13 µM | – | – | – | – | – |
| Cc1cc(NC(=O)c2cccc(S(=O)(=O)NC3CCC(O)C3)c2)ccc1F (single isomer, unassigned) [Compound 145a, N-(4-fluoro-3-methyl-phenyl)-3-[[(1R,3S)-3-hydroxycyclopentyl]sulfamoyl]benzamide or N-(4-fluoro-3-methyl-phenyl)-3-[[(1S,3R)-3-hydroxycyclopentyl]sulfamoyl]benzamide] | > 25 µM | – | – | – | – | – | 0.21 µM | 0.14 µM |
| Cc1cc(NC(=O)c2cccc(S(=O)(=O)NC(C)C)c2)cc(C)c1F [Compound 186] | > 25 µM | 1.34 µM | 0.2 µM | – | – | – | – | – |
| Cc1ccc(S(=O)(=O)NC2(C)COC2)c(F)c1C(=O)Nc1ccc(F)c(Cl)c1 [Compound 195] | > 25 µM | 0.18 µM | 0.27 µM | – | – | – | – | – |
| Cc1cc(NC(=O)c2cc(S(=O)(=O)N[C@H]3CCOC3)ccc2C(F)(F)F)ccc1F [Compound 242] | > 25 µM | 1.8 µM | 1.91 µM | – | – | – | – | – |
| CC1(NS(=O)(=O)c2cc(Cl)cc(C(=O)Nc3ccc(F)c(C(F)F)c3)c2F)COC1 [Compound 217] | > 25 µM | 0.6 µM | 0.2 µM | – | – | – | – | – |
